In the NIST ThermoML archive (doi:10.1016/j.jct.2019.05.005):
Numbers after ± are expanded uncertainties.

Conditions: Liquid; Ebulliometric method (Recirculating still)

Row | Normal boiling temperature [°C] | Structure (SMILES)
1 | 112.18 ± 1 | CCC(C)OC(C)=O (centres undefined) [1-methylpropyl ethanoate]
2 | 165.80 ± 1 | CC(=O)N(C)C [N,N-dimethylethanamide]
3 | 99.48 ± 1 | CCC(C)O (centres undefined) [butan-2-ol]
4 | 190.02 ± 1 | C[S+](C)[O-] [dimethyl sulfoxide]
